Reference: US20260108546A1 (ELI LILLY AND COMPANY, priority 2024, published 2026)

Target: T1, hGIP-R (Homo sapiens, UniProt P48546)
T1 construct: expressed in transfected cells; host or cells: HEK-293 clonal cell lines
T1 sequence (P48546 22-466): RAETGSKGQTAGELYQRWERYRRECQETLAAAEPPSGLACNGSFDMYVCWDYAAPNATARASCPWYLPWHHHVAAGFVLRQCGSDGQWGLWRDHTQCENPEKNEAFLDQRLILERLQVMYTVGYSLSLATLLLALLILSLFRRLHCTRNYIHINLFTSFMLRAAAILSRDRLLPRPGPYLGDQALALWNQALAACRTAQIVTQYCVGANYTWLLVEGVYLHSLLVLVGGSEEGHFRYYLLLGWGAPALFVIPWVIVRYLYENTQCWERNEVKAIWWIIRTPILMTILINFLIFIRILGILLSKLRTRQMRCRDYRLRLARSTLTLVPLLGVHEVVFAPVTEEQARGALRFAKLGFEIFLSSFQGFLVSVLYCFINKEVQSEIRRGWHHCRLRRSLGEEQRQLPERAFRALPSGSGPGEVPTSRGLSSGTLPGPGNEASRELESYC
Test: Functional hGIP-R Assay (cAMP formation, HTRF)
Format: cell-based
Details: for Emax: cAMP efficacy, percent of maximal response to GIP(1-42)OH, 37° C., 0.1% bovine casein, arithmetic mean ± SEM; for EC50: cAMP potency, HEK-293 cells expressing hGIP-R, incubated at 37° C. in the presence of 0.1% bovine casein, geometric mean, read-out: Human GIP-R EC50, nM (SEM, n)
Procedure, shortened: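 HEK-293 cells expressing hGIP-R were given a 20-point compound series in DMEM with 0.1% casein, 250 μM IBMX, 1% DMSO, 30 min at 37 °C. cAMP was read by HTRF against a standard curve, expressed as % of human GIP (1-42) OH maximum; EC50 and Emax came from four-parameter fits.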

Emax | EC50 | SMILES
109% | 3.95 nM | Cn1cc2cc(-c3ccc([C@H]4C[C@@]45CCN([C@H](Cc4cnn(C(F)F)c4)C(=O)NC(C)(C)Cn4nc(C(F)(F)F)cc4P(C)(C)=O)C5=O)c(Cl)c3)cnc2n1 [Example 163, (R)-2-((1S,3R)-1-(2-chloro-4-(2-methyl-2H-pyrazolo[3,4-b]pyridin-5-yl)phenyl)-4-oxo-5-azaspiro[2.4]heptan-5-yl)-3-(1-(difluoro-methyl)-1H-pyrazol-4-yl)-N-(1-(5-(dimethyl-phosphoryl)-3-(trifluoro-methyl)-1H-pyrazol-1-yl)-2-methylpropan-2-yl)propanamide]
53.3 ± 0.286% | 4.31 nM | CCn1cc2cc(-c3ccc([C@H]4C[C@@]45CCN([C@H](Cc4cnn(C(F)F)c4)C(=O)NC(C)(C)Cn4nc(C(F)(F)F)cc4-c4cnc(C(C)(C)O)nc4)C5=O)c(C)n3)cnc2n1 [Example 164, (R)-3-(1-(difluoromethyl)-1H-pyrazol-4-yl)-2-((1R,3R)-1-(6-(2-ethyl-2H-pyrazolo[3,4-b]pyridin-5-yl)-2-methylpyridin-3-yl)-4-oxo-5-azaspiro[2.4]heptan-5-yl)-N-(1-(5-(2-(2-hydroxypropan-2-yl)pyrimidin-5-yl)-3-(trifluoromethyl)-1H-pyrazol-1-yl)-2-methylpropan-2-yl)propanamide]
65.7 ± 4.25% | 0.44 nM | Cc1cn2cc(-c3ccc([C@H]4C[C@@]45CCN([C@H](Cc4cnn(C(F)F)c4)C(=O)NC(C)(C)Cn4nc(C(F)(F)F)cc4-c4ccn(C6CC6)c(=O)c4)C5=O)c(Cl)c3)cnc2n1 [Example 165, (R)-2-((1S,3R)-1-(2-chloro-4-(2-methylimidazo[1,2-a]pyrimidin-6-yl)phenyl)-4-oxo-5-azaspiro[2.4]heptan-5-yl)-N-(1-(5-(1-cyclopropyl-2-oxo-1,2-dihydropyridin-4-yl)-3-(trifluoromethyl)-1H-pyrazol-1-yl)-2-methylpropan-2-yl)-3-(1-(difluoromethyl)-1H-pyrazol-4-yl)propanamide]
110% | 1.81 nM | COCc1cn2cc(-c3ccc([C@H]4C[C@@]45CCN([C@H](Cc4cnn(C(F)F)c4)C(=O)NC(C)(C)Cn4nc(C(F)(F)F)cc4-c4ccc(C(C)(C)O)nc4)C5=O)c(C)n3)cnc2n1 [Example 168, (R)-3-(1-(difluoromethyl)-1H-pyrazol-4-yl)-N-(1-(5-(6-(2-hydroxypropan-2-yl)pyridin-3-yl)-3-(trifluoromethyl)-1H-pyrazol-1-yl)-2-methylpropan-2-yl)-2-((1R,3R)-1-(6-(2-(methoxymethyl)imidazo[1,2-a]pyrimidin-6-yl)-2-methylpyridin-3-yl)-4-oxo-5-azaspiro[2.4]heptan-5-yl)propanamide]
58.9 ± 1.86% | 1.15 nM | Cc1nc(-c2cnc3nn(C4CC4)cc3c2)ccc1[C@H]1C[C@@]12CCN([C@H](Cc1cnn(C(F)F)c1)C(=O)NC(C)(C)Cn1nc(C(F)(F)F)cc1-c1ccn(C3CC3)c(=O)c1)C2=O [Example 169, (R)—N-(1-(5-(1-cyclopropyl-2-oxo-1,2-dihydropyridin-4-yl)-3-(trifluoromethyl)-1H-pyrazol-1-yl)-2-methylpropan-2-yl)-2-((1R,3R)-1-(6-(2-cyclopropyl-2H-pyrazolo[3,4-b]pyridin-5-yl)-2-methylpyridin-3-yl)-4-oxo-5-azaspiro[2.4]heptan-5-yl)-3-(1-(difluoromethyl)-1H-pyrazol-4-yl)propanamide]
97.2 ± 0.998% | 0.846 nM | Cc1nc(-c2cnc3nc(C4CC4)cn3c2)ccc1[C@H]1C[C@@]12CCN([C@H](Cc1cnn(C(F)F)c1)C(=O)NC(C)(C)Cn1nc(C(F)(F)F)cc1-c1cc(F)c(=O)n(C)c1)C2=O [Example 170, (R)-2-((1R,3R)-1-(6-(2-cyclopropylimidazo[1,2-a]pyrimidin-6-yl)-2-methylpyridin-3-yl)-4-oxo-5-azaspiro[2.4]heptan-5-yl)-3-(1-(difluoromethyl)-1H-pyrazol-4-yl)-N-(1-(5-(5-fluoro-1-methyl-6-oxo-1,6-dihydropyridin-3-yl)-3-(trifluoromethyl)-1H-pyrazol-1-yl)-2-methylpropan-2-yl)propanamide]
25.1 ± 2.38% | 14.2 nM | Cc1nc(-c2ccc(C(C)(C)O)nc2)ccc1[C@H]1C[C@@]12CCN([C@H](Cc1cnn(C(F)F)c1)C(=O)NC(C)(C)Cn1nc(C(F)(F)F)cc1-c1ccn(C3CC3)c(=O)c1)C2=O [Example 171, (R)-N-(1-(5-(1-cyclopropyl-2-oxo-1,2-dihydropyridin-4-yl)-3-(trifluoromethyl)-1H-pyrazol-1-yl)-2-methylpropan-2-yl)-3-(1-(difluoromethyl)-1H-pyrazol-4-yl)-2-((1R,3R)-1-(6′-(2-hydroxypropan-2-yl)-6-methyl-[2,3′-bipyridin]-5-yl)-4-oxo-5-azaspiro[2.4]heptan-5-yl)propanamide]
12.6 ± 0.102% | 3.16 nM | COc1ccc(-c2ccc([C@H]3C[C@@]34CCN([C@H](Cc3cnn(C(F)F)c3)C(=O)NC(C)(C)Cn3nc(C(F)(F)F)cc3-c3ccn(C5CC5)c(=O)c3)C4=O)c(C)n2)cn1 [Example 172, (R)-N-(1-(5-(1-cyclopropyl-2-oxo-1,2-dihydropyridin-4-yl)-3-(trifluoromethyl)-1H-pyrazol-1-yl)-2-methylpropan-2-yl)-3-(1-(difluoromethyl)-1H-pyrazol-4-yl)-2-((1R,3R)-1-(6′-methoxy-6-methyl-[2,3′-bipyridin]-5-yl)-4-oxo-5-azaspiro[2.4]heptan-5-yl)propanamide]
15.9 ± 0.138% | 24.6 nM | COc1ncc(-c2ccc([C@H]3C[C@@]34CCN([C@H](Cc3cnn(C(F)F)c3)C(=O)NC(C)(C)Cn3nc(C(F)(F)F)cc3-c3ccn(C5CC5)c(=O)c3)C4=O)c(C)n2)cn1 [Example 173, (R)-N-(1-(5-(1-cyclopropyl-2-oxo-1,2-dihydropyridin-4-yl)-3-(trifluoromethyl)-1H-pyrazol-1-yl)-2-methylpropan-2-yl)-3-(1-(difluoromethyl)-1H-pyrazol-4-yl)-2-((1R,3R)-1-(6-(2-methoxypyrimidin-5-yl)-2-methylpyridin-3-yl)-4-oxo-5-azaspiro[2.4]heptan-5-yl)propanamide]
13.4 ± 1.64% | 6.09 nM | COc1ncc(-c2ccc([C@H]3C[C@@]34CCN([C@H](Cc3cnn(C(F)F)c3)C(=O)NC(C)(C)Cn3nc(C(F)(F)F)cc3-c3ccn(C5CC5)c(=O)c3)C4=O)c(C)n2)cc1F [Example 174, (R)-N-(1-(5-(1-cyclopropyl-2-oxo-1,2-dihydropyridin-4-yl)-3-(trifluoromethyl)-1H-pyrazol-1-yl)-2-methylpropan-2-yl)-3-(1-(difluoromethyl)-1H-pyrazol-4-yl)-2-((1R,3R)-1-(5′-fluoro-6′-methoxy-6-methyl-[2,3′-bipyridin]-5-yl)-4-oxo-5-azaspiro[2.4]heptan-5-yl)propanamide]
112 ± 1.44% | 0.996 nM | [2H]C([2H])([2H])n1cc(C[C@H](C(=O)NC(C)(C)Cn2nc(C(F)(F)F)cc2-c2ccc(C)nc2)N2CC[C@@]3(C[C@@H]3c3ccc(-c4cnc5nc(C6CC6)cn5c4)nc3C)C2=O)cn1 [Example 175, (R)-2-((1R,3R)-1-(6-(2-cyclopropylimidazo[1,2-a]pyrimidin-6-yl)-2-methylpyridin-3-yl)-4-oxo-5-azaspiro[2.4]heptan-5-yl)-N-(2-methyl-1-(5-(6-methylpyridin-3-yl)-3-(trifluoromethyl)-1H-pyrazol-1-yl)propan-2-yl)-3-(1-(methyl-d3)-1H-pyrazol-4-yl)propanamide]
123% | 14.4 nM | COCc1cn2cc(-c3ccc([C@H]4C[C@@]45CCN([C@H](Cc4cnn(C(F)F)c4)C(=O)NC(C)(C)Cn4nc(C(F)(F)F)cc4-c4cncc(C)n4)C5=O)c(C)n3)cnc2n1 [Example 176, (R)-3-(1-(difluoromethyl)-1H-pyrazol-4-yl)-2-((1R,3R)-1-(6-(2-(methoxymethyl)imidazo[1,2-a]pyrimidin-6-yl)-2-methylpyridin-3-yl)-4-oxo-5-azaspiro[2.4]heptan-5-yl)-N-(2-methyl-1-(5-(6-methylpyrazin-2-yl)-3-(trifluoromethyl)-1H-pyrazol-1-yl)propan-2-yl)propanamide]
39.9 ± 0.556% | 0.743 nM | Cc1cn2cc(-c3ccc([C@H]4C[C@@]45CCN([C@H](Cc4cnn(C(F)F)c4)C(=O)NC(C)(C)Cn4nc(C(F)(F)F)cc4-c4ccc(C(C)(C)O)nc4)C5=O)c(C)n3)cnc2n1 [Example 178, (R)-3-(1-(difluoromethyl)-1H-pyrazol-4-yl)-N-(1-(5-(6-(2-hydroxypropan-2-yl)pyridin-3-yl)-3-(trifluoromethyl)-1H-pyrazol-1-yl)-2-methylpropan-2-yl)-2-((1R,3R)-1-(2-methyl-6-(2-methylimidazo[1,2-a]pyrimidin-6-yl)pyridin-3-yl)-4-oxo-5-azaspiro[2.4]heptan-5-yl)propanamide]
